“Also recorded” adds a separate entry of the source.

For one assay, the system named is SKMEL28 melanoma cells. Put plainly: Growth curves of SKMEL28 cells by direct cell counting. It is filed as cell-based, human. Conditions: DMH1 vs control. As for the experimental part:
(§1) For growth curves 50,000 live cells were seeded per well in a 6-well tissue culture plate on day 0. The numbers of live cells were calculated every day using an automated cell counter (Nexcelom Bioscience Cellometer Auto T4) following standard procedures. All assays were performed with technical replicates. For clonogenic assays, 3,000 live cells were seeded in a 10 cm tissue culture plate. After 3 weeks, colonies were fixed and stained using bromophenol blue in acetone. ImageJ was used to quantify the number of colonies. In assays with DMH1 treatment, control or DMH1-containing media was replaced every other day. For soft agar assays a 0.5% bottom layer (1:1 with 1% agar and 2X DMEM with 20% FBS) and a 0.3% top layer (1:1 with 0.6% agar and 2× DMEM with 20% FBS) were used. 3,000 live cells per well of a 6-well tissue culture plate were added in the top layer. Media was added initially then replaced every 3 days. After 3 weeks, colonies were stained with nitroblue tetrazolium chloride overnight at 37° C. Once stained, individual wells were photographed, and ImageJ was used to count the number of colonies. All these assays were done in triplicate, and experiments were repeated at least twice. A representative image of each has been shown.

Assay [1] relates to A375 melanoma cells. As to the kind of experiment: Clonogenic growth (colony formation) assay. In kind it is cell-based, human. Particulars: A375-EMPTY vs A375-SMAD1DVD, 10 μM DMH1 in 0.1% DMSO. As for the experimental part: as §1, with “After 3 weeks, colonies were fixed and stained using bromophenol blue in acetone.” left out
Another assay concerns BMP signaling. As to the kind of experiment: Western blot of phospho-SMAD1 relative to total SMAD in DMH1-treated A375 cells. It is filed as cell-based, human. Conditions: 10 μM DMH1 vs control media. As for the experimental part:
Protein extracts were prepared as previously described (S. D. Epstein L B, Hunte-McDonough B, harris C A, Cytokines: A pratical approach (Balkwill F R., ed). 81-93 (1991)). Extracts were separated on 12% SDS-PAGE gels. Blots were probed with primary antibodies (GDF6 (Sigma PRS4691; 1:1000), phospho-SMAD1/5/8 (Cell Signaling 13820; 1:1000), SMAD1 (Cell Signaling 9743; 1:500), Total SMAD1/5/8 (Santa Cruz sc-6031-R; 1:1000), FLAG (Sigma F3165, 1:2000), GAPDH (Abcam 8245; 1:2000)) overnight at 4° C., washed five times in TBS plus 0.1% Tween (TBST) and then incubated with the appropriate HRP-conjugated secondary antibody (Jackson Labs) for 1 hour at room temperature. Membranes were washed five times in TBST and visualized on autoradiography film after incubating with ECL reagent (Supersignal West Pico or Supersignal West Femto; Thermo Scientific).

Assay [2] deals with A375 melanoma cells. Put plainly: A375 melanoma xenograft in nude mice, tumor volume. It is filed as in vivo, mouse. Conditions: 25 mg/kg DMH1 intraperitoneally every other day, A375 cells in BALB/c nu/nu mice. As for the experimental part:
An art-accepted model to test for an agent's effects on melanoma is that of using immunocompromised (“nude”) mice which are then injected subcutaneously with melanoma cells, and then concomitant with injection of the cells, sometime after injection, and/or after tumor establishment, the test agent is appropriately administered (e.g., intravenously, peritoneally, orally, etc.). Control and treated animals are monitored in part for tumor growth, tumor stabilization, and tumor regression (see for example, Yang et al. 2010. Cancer Res., 70:5518-5527 and Bollag et al. 2010. Nature. 467:596-599).
All animal protocols were approved by the UMMS Institution Animal Care and Use Committee (A-2016, A-2171). Mice were randomly allocated to individual experimental groups. No blinding was done as animal groups were identified by tagging and cage labeling. Animals were excluded, according to pre-established criteria, if the tumor volume reached >1,000 mm^3; if tumor size or location affected the mobility or general health of animal, the animal was euthanized and excluded from the experiment or the complete experiment was terminated. A375 cells stably expressing an EGFP or GDF6 or SMAD1 shRNA and/or empty vector or GDF6-expressing vector or SMAD1DVD-overexpressing vector were subcutaneously injected into the flanks of 6-8-week-old BALB/c nu/nu female mice (Taconic Farms) to produce orthotopic primary tumor. Primary tumor growth was monitored every 3 days with calipers, and the tumor volume was calculated as described previously (C. Gazin, N. Wajapeyee, S. Gobeil, C. M. Virbasius, M. R. Green, An elaborate pathway required for Ras-mediated epigenetic silencing. Nature 449, 1073-1077 (2007)). For GDF6 knockdown, SMAD1 knockdown and epistasis experiments, 1×10^7 live cells were injected. For GDF6 overexpression experiments, 1×10^6 live cells were injected. For GDF6 overexpression and GDF6 knockdowns, a representative of two independent experiments (n=3 animals per experiment) is shown. For DMH1 drug experiments, 1×10^6 live A375 cells were subcutaneously injected in the flanks of BALB/c nu/nu female mice. Beginning on the day cells were injected, mice were injected intraperitoneally with vehicle 12.5% 2-hydroxypropyl-β-cyclodextrin or 25 mg/kg DMH1 in vehicle every other day. The growth of the tumor was monitored as described above. This experiment was repeated twice and the weighted average of both experiments (n=8 total) is represented.

In assay [3] the test system is A375 melanoma cells. As to the kind of experiment: Growth curves of A375 cells by direct cell counting. Conditions: 10 μM DMH1 vs control. In kind it is cell-based, human. As for the experimental part:
as §1

Regarding `CC(C)Oc1ccc(-c2cnc3c(-c4ccnc5ccccc45)cnn3c2)cc1` [DMH1], the “SKMEL28 melanoma cell growth (growth curves)” value in the assay on SKMEL28 melanoma cells is recorded as “grew more slowly than did control cells”. Also, in the assay with A375 melanoma cells [1], the “colony formation of DMH1-treated cells expressing SMAD1DVD” value was “reversed by SMAD1DVD”. Further, the “level of phospho-SMAD1 relative to total SMAD protein” value in the assay on BMP signaling is listed as “reduced level of phospho-SMAD1 relative to total SMAD protein”. Also, the “tumor growth (tumor volume over time), DMH1 vs vehicle” value in the assay on A375 melanoma cells [2] is “smaller tumors arose and grew more slowly; also recorded: decreased tumorigenicity; also recorded: abrogates melanoma growth in mouse xenografts in vivo”. Besides, the “A375 melanoma cell growth (growth curves)” value in the assay on A375 melanoma cells [3] is listed as “grew more slowly than did control cells; also recorded: inhibits A375 melanoma cell growth”.

Source of the values: US20160279207A1, “TARGETING GDF6 AND BMP SIGNALING FOR ANTI-MELANOMA THERAPY” (University of Massachusetts, priority 2015, published 2016).
